According to patent US12329828B2, “Pyrimidine nucleoside compounds for fluorescence imaging and spectroscopy” (San Diego State University Foundation, priority 2020, dated 2025):
Where “and” joins values, the source holds several entries; their conditions need not be identical. Identical values can stand only once. Marks after values point to notes of the source that are not given here. Values belong to the molecule of their own block, whether it stands above or below them.

Tests used:
Type in all cases: physicochemical
[1] = One-photon single-molecule total internal reflection fluorescence (smTIRF) microscopy
Excerpt: The red-shifted absorption profile, high 2P brightness and predominance of the bright state made ABN a promising candidate for single-molecule detection via 1P excitation. […] Furthermore, these fluorescent puncta underwent single-step photobleaching under constant irradiation (FIG. 4B), consistent with the idea that ABN has suitable optical properties to be used as a single-molecule fluorescent nucleoside. By quantifying >2000 individual trajectories, we were able to determine the mean total detected photon value of 5300±1800 photons per molecule; furthermore, a mean of 1500±600 photons were detected per 100 ms integration from each molecule at a power density of 0.2 kW cm^−2.
Sample and slide preparation for IP method. ABN (10 mM, DMSO) was diluted into filtered (0.2 μm syringe filter, Whatman, 6780-1302) PBS (pH 7.4) to a working concentration of 100 nM. Borosilicate glass coverslips (VWR Int, 22×22 mm) were cleaned for 1 hour using an argon plasma (PDC-002, Harrick Plasma). Frame-Seal slide chambers (9×9 mm^2, Biorad, Hercules, CA) were affixed to the glass and the slides washed three times with filtered PBS (3×50 μL). The working solution of ABN (100 nM, 50 μL) was added to the slide and left for 3-minutes allowing for some of the ABN molecules to adsorb to the plasma-cleaned glass surface. […]
Single-molecule imaging. Single-molecule fluorescence imaging of ABN was performed on a bespoke total internal reflection fluorescence microscope using a 488 nm continuous wavelength diode laser (iBeamSMART, Toptica, 200.46 Wcm^−2). […] Fluorescence emission was collected by the same objective lens and separated from excitation light using a dichroic mirror (Di01-R405/488/561/635, Semrock) and passed through appropriate emission filters (BLP01-488R-25, FF01-520/44-25, Semrock). The fluorescence was then expanded (1.5×) and focused onto an electron-multiplying charge-coupled device (EMCCD, Evolve 512 Delta, Photometrics) with an electron multiplication gain of 250 ADU/photon operating in frame transfer mode. […]
Data analysis. A custom ImageJ macro was used to determine the total number of photons detected from single ABN emitters. The frames from single-molecule movies were summed and the pixel of peak intensity from each molecule was determined using the inbuilt ‘Find Maxima’ function (prominence threshold=20,000). The single emitters were selected from a 6×6 region surrounding the pixel of peak intensity and the total integrated intensity of the region was measured. […] The intensity per ABN emitter was converted from counts to photons detected by dividing the integrated signal above background by the total gain of the EMCCD (35.7 ADU/photon).

[2] = Two-photon single-molecule characterization (fluorescence correlation spectroscopy)
Excerpt: Single-molecule fluorescence measurements. Given the very attractive bulk-level photophysical properties of ABN in solution, we next investigated its potential as a single-molecule probe. […] In a later study, the base analogue DMA^thaU was detected as a free nucleoside at the single-molecule level for the first time via multiphoton excitation with a brightness of […] per molecule following three-photon excitation (see Phys. Chem. Chem. Phys. 2018, 20 (45), 28487; and J. Phys. Chem. Lett. 2019, 10 (17), 5008). […] The 2P brightness was measured using fluorescence correlation spectroscopy (FCS) and found to match that of DMA^thaU at 7 kHz per molecule (FIG. 3B).
Sample preparation for 2P method. All experiments were done with a solution of approximately 100 nM of ABN in TRIS buffer (20 mM TRIS base) at a pH of 7.5. The molecules were initially dissolved in DMSO (at a concentration of 100 μM) and subsequently diluted in buffer. The TRIS buffer was prepared with ultrapure water (Direct Q3, Merck Millipore), TRIS-base (20 mM, Trizma base, BioUltra, Sigma-Aldrich) and 150 mM NaCl (analytical reagent grade, Fluka). The pH was adjusted to 7.5 with a HCl solution (Sigma-Aldrich). Prior to sample preparation, the buffer was filtered with activated charcoal (Darco, Fluca) and through a 0.2 μm filter (Milex, Merck).
Two photon microscope. The two-photon microscope is a homebuilt pulse-shaper assisted setup with a ultra-broadband Ti:Sa laser as light source, recently described (R. S. Fisher, et al., Phys. Chem. Chem. Phys., 20, 28487 (2018)). The excitation source was a broadband Ti: Sapphire laser with a repetition rate of 80 MHz and a spectrum centered on 800 nm with a FWHM of 135 nm (Vitara UBB, Coherent). […] Sample fluorescence was collected by the same objective and transmitted through a dichroic mirror (Chroma 675dcspxr) and a short pass filter (Semrock FF01-650/SP), split by a polarising beamsplitter cube and detected by two avalanche photodiodes (MPD PDM 50c and 1MPD $PD-050-CTB). The signal was subsequently detected by a hardware correlator (ALV-7002, ALV GmbH).

[3] = Steady-state photophysical measurements of ABN in single-stranded and duplex DNA oligonucleotides
Excerpt: Next, we measured the fluorescence of ABN in single-stranded and duplex DNA oligonucleotides to determine how base pairing and stacking influence its photophysical properties (Table 2). ABN increases its fluorescence to Φem=0.50-0.53 in matched duplex DNA oligonucleotides when base paired with A and Φem=0.55 when the analogue is present in the hairpin loop of ODN1. The quantum yield is less, 0.40 and 0.29, in ODN1:ODN3 and ODN4:ODN6 respectively, in which ABN is base paired with G. In ODN7:ODN9 Φem,=0.55, slightly greater than when base paired with A. In all of these single-stranded and duplex sequences, ABN is brighter than any other known FBA when present in oligonucleotides.
(§1) Quantum yields measurements. Experiments were measured in a quartz sub-micro cuvette (10 mm path length) purchased from Starnacell Inc. Steady state emission scans were recorded using a PTI QuantaMaster QM-400 and absorbances were measured on a Shimadzu UV-1700 Pharmaspec spectrometer. Quantum yield measurements were performed the comparative method of Williams et. al. and measured in duplicate, at minimum. Coumarin 153 in ethanol was used as a reference standard for all photophysical measurements. All measurements were taken with an absorbance range of 0.01-0.1. Subsequent dilutions were performed stepwise in order to obtain a minimum of six absorbance and emission spectra for quantum yield determinations.

[4] = Steady-state absorption and fluorescence of the ABN nucleoside in solvents
Excerpt: Photophysical properties. Steady-state measurements. […] Owing to the conjugated push-pull system in the design of ABN, the absorption and emission wavelengths are the longest known for a FBA designed to be capable of Watson-Crick hydrogen bonding. Recorded emission spectra in water using excitation wavelengths ranging from 310-500 nm are nearly superposable, as are excitation spectra recorded for emission wavelengths spanning 500-650 nm. These observations support the predominance of a single tautomeric form in dilute, aqueous solution.
as §1

[5] = Melting temperatures of ABN-containing oligonucleotides (temperature-dependent circular dichroism); settings: for Tm: ABN-containing hairpin or duplex
Excerpt: Temperature-dependent circular dichroism measurements of all six duplexes are consistent with the B-DNA conformation with only minimal perturbation (Table 2). Except in the ODN1 hairpin, where ABN is expected to be mostly solvent exposed, the melting temperatures of the duplexes are typically somewhat depressed as compared with their natural counterparts. Duplex stability is lowest when ABN has 5′-G and 3′-C neighbors, an observation consistent with other tricyclic FBAs, especially those that are electron-rich. The observed melting temperatures provide little indication of whether ABN is a better T- or C-surrogate.

[6] = Steady-state photophysical measurements of ABN in single-stranded and duplex DNA oligonucleotides; settings: 1×PBS buffer (pH 7.4), different concentrations
[7] = Tm of ABN-containing duplex − Tm of corresponding duplex with canonical thymidine in place of ABN
[8] = ABN in DNA oligonucleotide, 1×PBS buffer (pH 7.4)

- mean total on-time ([1]; 0.2 kW cm^−2): 0.35 ± 0.18 s
- mean number of photons detected per frame per single molecule ([1]; 488 nm, 0.2 kW cm^−2, 100 ms integration): 1500±600 photons/100 ms
- mean total number of photons detected per single molecule ([1]; 488 nm, 0.2 kW cm^−2, log-normal fit, N=2402 molecules): 5300±1800 photons
- brightness following 1P excitation ([1]; one-photon excitation): 15 kHz per molecule
- bright/dark state by controlled dilution ([2]; FCS, controlled dilution): exclusively in a bright state
- fraction of compound in a bright state ([2]; single-molecule fluorescence measurements): > 95%
- Φem ([3]; in matched duplex DNA oligonucleotides, base paired with A): 0.50-0.53
- λem, max [4]: 540 nm
- ε · Φem (brightness) ([4]; 1,4-dioxane): 19000 M⁻¹ cm⁻¹
- λem, max ([4]; 1,4-dioxane): 474 nm
- λex, max ([4]; 1,4-dioxane): 420 nm
- Φem ([4]; 1,4-dioxane, emission 474 nm): 0.64
- Φem ([4]; 1 × PBS pH 7.4): 0.39
- λex, max ([4]; 1 × PBS pH 7.4): 442 nm
- ε · Φem (brightness) ([4]; H2O): 7800 M⁻¹ cm⁻¹
- λem, max ([4]; H2O): 540 nm
- λex, max ([4]; H2O): 442 nm
- Φem ([4]; H2O, emission 540 nm): 0.39
- red shift of absorption relative to closest competitors on brightness (pA, coumarin nucleoside) ([4]; aqueous solution): more than 50 nm
- red shift of emission relative to closest competitors on brightness (pA, coumarin nucleoside) ([4]; aqueous solution): > 80 nm
Molecule: CCN(CC)c1ccc2cc3cc([C@H]4C[C@@H](O)[C@@H](CO)O4)c(=O)nc-3[nH]c2c1 [ABN, 8-(diethylamino)-3-((2R,4R,5R)-4-hydroxy-5-(hydroxymethyl)tetrahydrofuran-2-yl)benzo[b][1,8]naphthyridin-2(10H)-one]
- 2P brightness (average count rate per molecule) ([2]; FCS, two-photon excitation, 100 nM in TRIS buffer, excitation power 11 mW): 7 kHz per molecule and 7±0.5 kHz per molecule

Molecule: ODN1: hairpin GCT TAG CAG GXT AGT GCT AAG C (SEQ ID NO: 1), X = ABN in loop (GCT TAG CAG GXTAGT GCT AAG C; ABN abasic-like nucleoside in loop, as printed in the source, key not given here)
- Tm [5]: 63.6 ± 0.6 °C
- ΔTm [5, 7]: +3.1 °C
- Φem [3, 8]: 0.55
- λabs, max [3, 8]: 450 nm
- λem, max [3, 8]: 530 nm

Molecule: ODN1:ODN2: duplex of ODN1 with ODN2 (HairpinA, SEQ ID NO: 4); ABN base paired with A (chain 1 GCTTAGCAGGNTAGTGCTAAGC; chain 2 GCTTAGCACTAACCTGCTAAGC; ABN nucleoside, chemistry not fully specified)
- Tm [5]: 61.8 ± 0.4 °C
- ΔTm [5, 7]: −4.7 °C
- Φem [3, 8]: 0.53
- λabs, max [3, 8]: 440 nm
- λem, max [3, 8]: 530 nm

Molecule: ODN1:ODN3: duplex of ODN1 with ODN3 (HairpinG, SEQ ID NO: 5); ABN base paired with G (chain 1 GCTTAGCAGGNTAGTGCTAAGC; chain 2 GCTTAGCACTAGCCTGCTAAGC; ABN nucleoside, chemistry not fully specified)
- Tm [5]: 61.3 ± 0.6 °C
- ΔTm ([5]; comparison with Tm of the corresponding natural duplex with a C:G base pair): +1.6^c ° C.
- Φem [3, 8]: 0.40
- λabs, max [3, 8]: 468 nm
- λem, max [3, 8]: 523 nm

Molecule: ODN4: 10-mer CGC AAX ATC G (SEQ ID NO: 2), X = ABN (ABN nucleoside, as printed in the source, key not given here)
- Φem [3, 8]: 0.49
- λabs, max [3, 8]: 452 nm
- λem, max [3, 8]: 540 nm

Molecule: ODN7: 10-mer CGC AGX CTC G (SEQ ID NO: 3), X = ABN (ABN nucleoside, as printed in the source, key not given here)
- concentration dependence of absorption spectra [6]: concentration dependent
- Φem [3, 8]: 0.62
- λem, max [3, 8]: 532 nm
